# Values joined by “and” are separate entries in the source; they are usually repeats but may differ in a detail not shown here. Equal entries are not always repeated.
# Legend:
# [1] = test system: COVID-19; details: human, in vivo
# [2] = test system: COVID-19; details: human, in vivo; remark: listed apart in the source
# [3] = test system: T-cell; details: in vitro; cited from earlier work
# [4] = test system: natural killer cell; details: in vitro; cited from earlier work
# [5] = test system: immature DC; details: in vitro; cited from earlier work
# [6] = test system: leukocytes; details: after penetrating leukocytes by endocytosis; cited from earlier work
substance,measurement,setting,value
Azoximer bromide [AZB],Body temperature normalisation (≤37° C.),[1],all patients had a normal body temperature
same,"Day 15 OS score 1 (not hospitalized, no limitations on activities), %",[1],1.3% and 1 (1.3) %
same,"Day 15 OS score 2 (not hospitalized, limitation on activities), %",[1],35.1% and 27 (35.1) %
same,"Day 15 OS score 3 (hospitalized, not requiring supplemental oxygen), %",[1],45.5% and 35 (45.5) %
same,"Day 15 OS score 4 (hospitalized, requiring supplemental oxygen), %",[1],9 (11.7) %
same,"Day 15 OS score 5 (hospitalized, on noninvasive ventilation or high flow oxygen devices), %",[1],3.9% and 3 (3.9) %
same,"Day 15 OS score 6 (hospitalized, on invasive mechanical ventilation or extracorporeal membrane oxygenation), %",[1],2.6% and 2 (2.6) %
same,"Day 15 OS score 7 (death), %",[1],0 (0.0) %
same,"Day 15 Ordinal Scale score, mean",[1],2.90
same,"Day 28 Mortality: alive, %",[1],77 (100.0) %
same,"Day 28 Mortality: dead, %",[1],0 (0.0) %
same,"Duration of hospitalization, mean",[1],19.32 days and 19.13^g days and 19.32^h days
same,"Duration of hospitalization, median",[1],19.0 days and 19.0^c days
same,Improvement probability (NEWS),[1],> 80%
same,Mean (SD) NEWS,[1],1.08 (1.18)
same,Mean C-reactive protein (CRP),[1],13.21 mg/L
same,Mean oxygen saturation,[1],96.90% and 96.98%
same,Mean time to an OS score improving to ≤2,[1],15.9 days
same,Mean time to vanishing signs of pneumonia,[1],18.45 days
same,Median C-reactive protein (CRP),[1],8.5 mg/L
same,Number of patients requiring respiratory support (OS=4-6),[1],14 patients
same,"Patients with an OS score of 2 or 3, percent",[1],93.5%
same,"Pneumonia presence, number of patients",[1],18 patients
same,"Pneumonia presence, percent of patients",[1],23.4%
same,Probability of achieving a normal body temperature,[1],90%
same,Respiratory support requirement,[1],No patients required respiratory support
same,SpO2 value of the one patient below the reference range,[1],94%
same,"Absolute number of ARI cases, control group versus main (AZB) group",[2],more than 10 times higher
same,"Afflicted by ARI, number",[2],32
same,"Afflicted by ARI, percent",[2],13.1%
same,"Afflicted by acute respiratory illness (ARI), percent",[2],0.3%
same,Cases of ARI,[2],3 cases
same,Cases of COVID-19,[2],1 case
same,"Confirmed diagnosis of COVID-19 (PCR or antibody test), number",[2],2
same,"Confirmed diagnosis of COVID-19 (PCR or antibody test), percent",[2],0.3%
same,"Confirmed diagnosis of COVID-19 (PCR test data), number",[2],6
same,"Confirmed diagnosis of COVID-19 (PCR test data), percent",[2],2.4%
same,"Number of ARI cases, control group versus main (AZB) group",[2],more than 30 times
same,"Participants who developed pneumonia, percent (reported ARI cases)",[2],0%
same,T-cell proliferation,[3],induce T-cell proliferation
same,Natural killer cell degranulation,[4],increase natural killer cell degranulation
same,Immature DC expansion,[5],increase immature DC expansion
same,Intracellular hydrogen peroxide,[6],significant dose-dependent increases
